The values below come from patent US20030096893A1, “Oxidatively drying coating composition” (priority 2001, published 2003).

SMILES strings stand for the structures. Where two headings read alike, the source gives them in different places.

The data set in a line: Solubility of the ligand in Shellsol D40 at 23° C. In kind it is physicochemical. On the procedure:
This condensation product was added to Shellsole® D40 at a temperature of 23° C. The solubility of the ligand was less than 10 g/l.
Comparative Example A was repeated using 2-hydroxy 5-methyl benzaldehyde instead of salicyl aldehyde. Again, the resulting ligand was added to Shellsol® D40 at a temperature of 23° C. The solubilty of the ligand was less than 10 g/l.
Comparative Example A was repeated using 2-hydroxy 3,5-di tert. butyl benzaldehyde instead of salicyl aldehyde. Obtained was a ligand according to formula I having two tert. butyl substitutions on the two aromatic groups A1 and A2. The solubility in Shellsol® D40 at a temperature of 23° C. was higher than 20 g/l.
Comparative Example A was repeated again, now using 2-hydroxy 5-dodecyl benzaldehyde instead of salicyl aldehyde. Obtained was a ligand according to formula I having a dodecyl substitution on the two aromatic groups A1 and A2. The solubility in Shellsol® D40 at a temperature of 23° C. was higher than 100 g/l.

Where [1] appears, read: Shellsol D40 (aromate-free organic solvent), 23° C.

Take `CCCCCCCCCCCCc1ccc(O)c(C=NC2CCCCC2N=Cc2cc(CCCCCCCCCCCC)ccc2O)c1` (stereo not shown) [Example 2]: under setting [1], the “solubility of the ligand in Shellsol D40” value was “higher than 100 g/l”.
On to `Oc1ccccc1C=NC1CCCCC1N=Cc1ccccc1O` (stereo not shown) [Comparative Example A, N,N′-bis(salicylidene) cyclohexylene diamine], for which the “solubility of the ligand in Shellsol D40” value was “less than 10 g/l”.
As to `Cc1ccc(O)c(C=NC2CCCCC2N=Cc2cc(C)ccc2O)c1` (stereo not shown) [B], under setting [1], the “solubility of the ligand in Shellsol D40” value is given as “less than 10 g/l”.
On to `CC(C)(C)c1cc(C=NC2CCCCC2N=Cc2cc(C(C)(C)C)cc(C(C)(C)C)c2O)c(O)c(C(C)(C)C)c1` (stereo not shown) [Example 1], for which the “solubility of the ligand in Shellsol D40” value under setting [1] is recorded as “higher than 20 g/l”.
